Literature values as cited in patent publication US20090232888A1, “SUSTAINED DELIVERY OF ANTIBIOTICS” (ORIENT PHARMA, priority 2008, published 2009).

Tests used:
[1] = solution, 4° C., shelf-life based on 90% residual potency

CN[C@H](CC(C)C)C(=O)N[C@H]1C(=O)N[C@@H](CC(N)=O)C(=O)N[C@H]2C(=O)N[C@H]3C(=O)N[C@H](C(=O)N[C@H](C(=O)O)c4cc(O)cc(O)c4-c4cc3ccc4O)[C@H](O)c3ccc(c(Cl)c3)Oc3cc2cc(c3O[C@@H]2O[C@H](CO)[C@@H](O)[C@H](O)[C@H]2O[C@H]2C[C@](C)(N)[C@H](O)[C@H](C)O2)Oc2ccc(cc2Cl)[C@H]1O [vancomycin]
time vancomycin solutions were stable (shelf-life of 90% residual potency) [1]: at least 58 days | oral bioavailability: negligible
